Patent US12325696B2, “Indazole derivative, preparation method therefor, and pharmaceutical application thereof” (JIANGSU HENGRUI MEDICINE CO., LTD., priority 2019, dated 2025)

Columns and labels:
Format in all cases: cell-based
[1] = tested on: estrogen receptor reporter gene; assay: Inhibition of estrogen receptor reporter gene activity (ERE-luc luciferase) in MCF7/ERE-luc cells; details: Homo sapiens, 0.1 nM β-estradiol, 20 hours, read-out: IC50 of inhibitory activity on the activity of the estrogen receptor reporter gene
Protocol: MCF7 cells MCF7/ERE-luc (ATCC, HTB-22) expressing the luciferase reporter gene ERE-luc (synthesized by GENEWIZ, Inc.) controlled by the estrogen receptor response element were cultured in MEM (GE Healthcare, SH30024.01) medium containing 10% fetal bovine serum and 500 µg/ml G418. On the first day of the experiment, MCF7/ERE-luc cells were seeded in a 96-well plate with incomplete MEM medium containing 10% fetal bovine serum treated with activated charcoal (BioSun, BS-0004-500) at a density of 30,000 cells/well (100 μl of cell suspension per well), and the plate was incubated in a cell incubator at 37° C. and 5% CO2 overnight. On the second day, 10 μl of β-estradiol (SIGMA, E2758-250MG) solution formulated with the above incomplete medium or test compound solution of different concentrations formulated with the above incomplete medium was added to each well, wherein the final concentration of β-estradiol was 0.1 nM, and the final concentrations of the compound were nine concentration points obtained by a 10-fold gradient dilution starting from 10 μM, a blank control containing 0.5% DMSO was set, and the plate was incubated in a cell incubator at 37° C. and 5% CO2 for 20 hours. On the third day, the 96-well plate was taken out, and 100 μl of ONE-Glo™ Luciferase Assay system (Promega, E6110) was added to each well to determine the activity of luciferase. The plate was left to stand at room temperature for 3 minutes until the cells were fully lysed, and the luminescence signal values were measured using a multi-label microplate reader (PerkinElmer, VICTOR 3). The IC50 values of the inhibitory activity of the compounds were calculated using Graphpad Prism software based on the concentrations and luminescence signal values of the compounds.
The inhibitory effect of the compounds of the present disclosure on the activity of the estrogen receptor reporter gene was determined by the above test. A graph of the chemiluminescence signal values versus the logarithmic concentrations of the compound was made using Graghpad Prism.

MCF7 cell = assay: Inhibition of proliferation of MCF7 cell (CellTiter-Glo, 144 hours); details: Homo sapiens; for IC50: MCF7, CellTiter-Glo, read-out: IC50 of the inhibitory effect on the proliferation of MCF7 cell; for Emax: MCF7 cell proliferation, read-out: Maximum inhibition
Protocol: (§1) MCF7 cells (ATCC, HTB-22) were cultured in MEM (GE Healthcare, SH30024.01) complete medium containing 10% fetal bovine serum. On the first day of the experiment, MCF7 cells were seeded in a 96-well plate with the complete medium at a density of 3,000 cells/well (100 μl of cell suspension per well), and the plate was incubated in a cell incubator at 37° C. and 5% CO2 overnight. On the second day, the medium in each well was replaced with 135 μl of MEM incomplete medium containing 2% fetal bovine serum. 15 μl of test compound solution of different concentrations formulated with the incomplete medium was added to each well, wherein the final concentrations of the compound were nine concentration points obtained by a 4-fold gradient dilution starting from 100 nM. A blank control containing 0.5% DMSO was set. The plate was incubated in a cell incubator at 37° C. and 5% CO2 for 144 hours. On the eighth day, the 96-well plate was taken out, and 150 μl of CellTiter-Glo® Luminescent Cell Viability Assay (Promega, G7573) was added to each well. The plate was left to stand at room temperature for 10 minutes, and the luminescence signal values were measured using a multi-label microplate reader (PerkinElmer, VICTOR 3). The IC50 values of the inhibitory activity of the compounds were calculated based on the concentrations and luminescence signal values of the compounds using Graphpad Prism software.
A graph of the chemiluminescence signal values versus the logarithmic concentrations of the compound was made using Graghpad Prism to obtain the IC50 values of the compound.

MCF7 D538G = assay: Inhibition of proliferation of MCF7 cell expressing ERα D538G mutant; details: Homo sapiens, 144 hours; for Emax: read-out: Maximum inhibition
Source text: (§2) The mutants ERα Y537S and ERα D538G of human estrogen receptor α (ERαs) protein were obtained by site-directed mutagenesis using the cDNA of wild-type ESR1 gene (Accession No. NM000125) as a template according to double-primer PCR. The primer sequences used for mutagenesis are as follows (the nucleotides underlined are the sites of mutagenesis):
(§3) The cDNA of mutant ESR1 was cloned into the target lentiviral vector pCDH-CMV-MCS-EF1-Puro (SBI, CD510B-1). The lentiviral plasmid with the mutant ESR1 gene sequence and the lentiviral packaging plasmids pVSV-G and pCMV-dR8.91 (SBI, LV500A-1) were transfected into HEK-293T cells (ATCC, CRL-3216) by Lipofectamine 3000 Transfection Reagent (ThermoFisher Scientific, Cat #L3000075). 48 hours after the transfection, the supernatant of the virus-containing DMEM high-glycemic medium (GE Healthcare, SH30243.01) containing 10% FBS was filtered, and ultracentrifuged to obtain the virus pellet. The virus pellet was resuspended in an appropriate amount of MEM medium (GE Healthcare, SH30024.01) containing 10% FBS, non-essential amino acids (SIGMA, M7145-100ML) and sodium pyruvate (SIGMA, S8636-100ML), and the resulting suspension was added to MCF7 cells (ATCC, HTB-22). Polybrene (SIGMA, H9268-5G) at a final concentration of 8 µg/ml was added, and the cells were incubated overnight. Two days after the transfection, […] puromycin (invitrogen, A11138-03) was added to the cell culture medium for resistance screening. After about two weeks, the MCF7 cell line capable of stably expressing ERαY537S and ERα D538G mutants was obtained.
as §1, with “MCF7 cells expressing ERα mutant were cultured” for “MCF7 cells (ATCC, HTB-22) were cultured”, “the experiment, the cells were” for “the experiment, MCF7 cells were”, “control containing 0.500 DMSO was” for “control containing 0.5% DMSO was”, “C. and […] for” for “C. and 5% CO2 for”, “and 150 of CellTiter-Glo®” for “and 150 μl of CellTiter-Glo®”

MCF7 ERαY537S = assay: Inhibition of proliferation of MCF7 cell expressing ERα Y537S mutant; details: Homo sapiens, 144 hours; for Emax: read-out: Maximum inhibition
Source text: as §2, §3
as §1, with “MCF7 cells expressing ERα mutant were cultured” for “MCF7 cells (ATCC, HTB-22) were cultured”, “the experiment, the cells were” for “the experiment, MCF7 cells were”, “control containing 0.500 DMSO was” for “control containing 0.5% DMSO was”, “C. and […] for” for “C. and 5% CO2 for”, “and 150 of CellTiter-Glo®” for “and 150 μl of CellTiter-Glo®”

IC50 [1] [nM]	IC50 (MCF7 cell) [nM]	IC50 (MCF7 D538G) [nM]	IC50 (MCF7 ERαY537S) [nM]	Compound	Emax (MCF7 cell) [%]	Emax (MCF7 D538G) [%]	Emax (MCF7 ERαY537S) [%]
3	0.4	3	2	CN(C)C(=O)/C=C/CN1CC[C@@H](Oc2ccc(/C(=C(/CC(F)(F)F)c3ccccc3)c3ccc4[nH]nc(F)c4c3)cn2)C1 [Example 29, (E)-N,N-Dimethyl-4-((R)-3-((5-((Z)-4,4,4-trifluoro-1-(3-fluoro-1H-indazol-5-yl)-2-phenylbut-1-en-1-yl)pyridin-2-yl)oxy)pyrrolidin-1-yl)but-2-enamide]	93	93	93
5	0.5	2	3	CN(C)C(=O)/C=C/CNC1CCN(c2ccc(/C(=C(/CC(F)(F)F)c3ccccc3)c3ccc4[nH]nc(F)c4c3)cn2)CC1 [Example 36, (E)-N,N-Dimethyl-4-((1-(5-((Z)-4,4,4-trifluoro-1-(3-fluoro-1H-indazol-5-yl)-2-phenylbut-1-en-1-yl)pyridin-2-yl)piperidin-4-yl)amino)but-2-enamide]	104	99	100
5	0.8	2	4	CC(C)(C)NC(=O)/C=C/CN1CCC[C@@H](Oc2ccc(/C(=C(/CC(F)(F)F)c3ccccc3)c3ccc4[nH]nc(F)c4c3)cn2)C1 [Example 16, (E)-N-(Tert-butyl)-4-((R)-3-((5-((Z)-4,4,4-trifluoro-1-(3-fluoro-1H-indazol-5-yl)-2-phenylbut-1-en-1-yl)pyridin-2-yl)oxy)piperidin-1-yl)but-2-enamide]	102	110	88
2	0.1	0.8	2	CN(C)C(=O)/C=C/CN1CCC(Oc2ccc(/C(=C(/CC(F)(F)F)c3ccccc3)c3ccc4[nH]nc(F)c4c3)cn2)CC1 [Example 9, (E)-N,N-Dimethyl-4-(4-((5-((Z)-4,4,4-trifluoro-1-(3-fluoro-1H-indazol-5-yl)-2-phenylbut-1-en-1-yl)pyridin-2-yl)oxy)piperidin-1-yl)but-2-enamide]	110	108	94

Second part, the molecule before the results:

Compound	IC50 [1] [nM]	IC50 (MCF7 cell) [nM]	IC50 (MCF7 D538G) [nM]	IC50 (MCF7 ERαY537S) [nM]	Emax (MCF7 cell) [%]	Emax (MCF7 D538G) [%]	Emax (MCF7 ERαY537S) [%]
CCN(C/C=C/C(=O)N(C)C)C1(COc2ccc(/C(=C(/CC(F)(F)F)c3ccccc3)c3ccc4[nH]nc(F)c4c3)cn2)CC1 [Example 6, (E)-4-(Ethyl(1-(((5-((Z)-4,4,4-trifluoro-1-(3-fluoro-1H-indazol-5-yl)-2-phenylbut-1-en-1-yl)pyridin-2-yl)oxy)methyl)cyclopropyl)amino)-N,N-dimethylbut-2-enamide]	0.5	0.15	0.5	1	94	98	102
CC#CC(=O)N1CCC[C@@H](Oc2ccc(/C(=C(/CC(F)(F)F)c3ccccc3)c3ccc4[nH]nc(F)c4c3)cn2)C1 [Example 25, (R,Z)-1-(3-((5-(4,4,4-Trifluoro-1-(3-fluoro-1H-indazol-5-yl)-2-phenylbut-1-en-1-yl)pyridin-2-yl)oxy)piperidin-1-yl)but-2-yn-1-one]	3	0.5	1	1	109	112	107
O=C(/C=C/CN1CCC[C@@H](Oc2ccc(/C(=C(/CC(F)(F)F)c3ccccc3)c3ccc4[nH]nc(F)c4c3)cn2)C1)NC1CCOCC1 [Example 13, (E)-N-(Tetrahydro-2H-pyran-4-yl)-4-((R)-3-((5-((Z)-4,4,4-trifluoro-1-(3-fluoro-1H-indazol-5-yl)-2-phenylbut-1-en-1-yl)pyridin-2-yl)oxy)piperidin-1-yl)but-2-enamide]	3	0.6	3	5	88	107	104
O=C(/C=C/CN1CCC[C@@H](Oc2ccc(/C(=C(/CC(F)(F)F)c3ccccc3)c3ccc4[nH]nc(F)c4c3)cn2)C1)NC1CCCC1 [Example 17, (E)-N-Cyclopentyl-4-((R)-3-((5-((Z)-4,4,4-trifluoro-1-(3-fluoro-1H-indazol-5-yl)-2-phenylbut-1-en-1-yl)pyridin-2-yl)oxy)piperidin-1-yl)but-2-enamide]	6	0.6	3	3	96	104	102
O=C(/C=C/CNC1(COc2ccc(/C(=C(/CC(F)(F)F)c3ccccc3)c3ccc4[nH]nc(F)c4c3)cn2)CC1)N1CCNCC1 [Example 4, (E)-1-(Piperazin-1-yl)-4-((1-(((5-((Z)-4,4,4-trifluoro-1-(3-fluoro-1H-indazol-5-yl)-2-phenylbut-1-en-1-yl)pyridin-2-yl)oxy)methyl)cyclopropyl)amino)but-2-en-1-one]	4	1.5	10	11	113	105	101
CN(C)C(=O)/C=C/CN(C)[C@H]1CCCN(c2ccc(/C(=C(/CC(F)(F)F)c3ccccc3)c3ccc4[nH]nc(F)c4c3)cn2)C1 [Example 37, (E)-N,N-Dimethyl-4-(methyl((S)-1-(5-((Z)-4,4,4-trifluoro-1-(3-fluoro-1H-indazol-5-yl)-2-phenylbut-1-en-1-yl)pyridin-2-yl)piperidin-3-yl)amino)but-2-enamide]	8	0.8	2	3	98	101	86
